“And” between values parts separate entries of the source, which are not always exact repeats. Identical values can stand only once. Like-named read-outs stand apart in the source and are kept apart here.
How the values were obtained:
[1] = target: SARS-CoV-1 3CLPro (Severe acute respiratory syndrome coronavirus, UniProt P0C6X7); assay: biochemical
[2] = target: MERS-CoV 3CLPro (Middle East respiratory syndrome-related coronavirus, UniProt K9N7C7); assay: biochemical
[3] = target: hCoV-229E 3CLPro (Human coronavirus 229E, UniProt P0C6X1); assay: biochemical
[4] = target: hCoV-OC43 3CLPro (Human coronavirus OC43, UniProt P0C6X6); assay: biochemical
[5] = target: hCoV-HKU1 3CLPro (Human coronavirus HKU1, UniProt P0C6X2); assay: biochemical
[6] = target: hCoV-NL63 3CLPro (Human coronavirus NL63, UniProt P0C6X5); assay: biochemical
[7] = test system: hCoV-229E; assay: microbe, parasite or virus in culture; format: cell-based; conditions: Human coronavirus 229E, Huh-7, 120 h, read-out: EC50 Geomean
[8] = test system: hCoV-OC43; assay: microbe, parasite or virus in culture; format: cell-based; conditions: Betacoronavirus 1, OC43, Huh-7, 120 h, read-out: EC50 Geomean
[9] = test system: MERS-CoV replicon; assay: microbe, parasite or virus in culture; format: cell-based; conditions: Middle East respiratory syndrome-related coronavirus, A549, read-out: EC50 Geomean
[10] = test system: SARS-CoV-2; assay: microbe, parasite or virus in culture; format: cell-based
[11] = test system: MERS-CoV; assay: microbe, parasite or virus in culture; format: cell-based; conditions: read-out: IC50 Mean ± SD
[12] = test system: MERS-CoV; assay: microbe, parasite or virus in culture; format: cell-based; conditions: for EC90: read-out: EC90 Mean ± SD
[13] = test system: SARS-CoV-2 USA-WA1/2020; design: species or system transgenic K18-hACE2 mice; conditions: mouse, in vivo
[14] = test system: SARS-CoV-2 replicon; conditions: read-out: EC50 Geomean
[15] = in vivo
[16] = test system: MERS-CoV EMC 2012; conditions: mouse, in vivo
[17] = K18-hDPP4, mouse, in vivo
[18] = in vivo; conditions: female, CD-1, mouse; for AUC: po
[19] = in vitro; conditions: human
[20] = in vitro; conditions: African green monkey
[21] = test system: COVID-19; conditions: human, in vivo; cited from earlier work
[22] = in vivo; cited from earlier work
[23] = test system: SARS-CoV-2 replicon; assay: microbe, parasite or virus in culture; conditions: Severe acute respiratory syndrome coronavirus 2, A549, read-out: EC50 Geomean
[24] = test system: SARS-CoV-2 (Omicron EG.5.1) and MERS-CoV; format: cell-based
[25] = test system: Vero E6+TMPRSS2 cells
[26] = Severe acute respiratory syndrome coronavirus 2, read-out: EC50 Geomean
[27] = Middle East respiratory syndrome-related coronavirus, VeroE6/TMPRSS2, 48 h
[28] = Middle East respiratory syndrome-related coronavirus, VeroE6/TMPRSS2, 72 h, read-out: EC50 Mean ± SD
[29] = Middle East respiratory syndrome-related coronavirus, read-out: EC50 Geomean
[30] = Middle East respiratory syndrome-related coronavirus

MERS-CoV 3CLPro, sequence (K9N7C7 3248-3553 limits assumed): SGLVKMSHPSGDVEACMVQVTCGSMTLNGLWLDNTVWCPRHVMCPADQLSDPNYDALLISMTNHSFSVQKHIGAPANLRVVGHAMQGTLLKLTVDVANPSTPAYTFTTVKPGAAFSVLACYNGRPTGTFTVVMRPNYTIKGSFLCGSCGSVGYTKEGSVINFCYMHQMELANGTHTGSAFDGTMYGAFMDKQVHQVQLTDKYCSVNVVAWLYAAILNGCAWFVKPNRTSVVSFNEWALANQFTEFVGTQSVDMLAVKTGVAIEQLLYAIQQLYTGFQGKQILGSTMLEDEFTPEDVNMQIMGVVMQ
hCoV-NL63 3CLPro, sequence (P0C6X5 2940-3242 limits assumed): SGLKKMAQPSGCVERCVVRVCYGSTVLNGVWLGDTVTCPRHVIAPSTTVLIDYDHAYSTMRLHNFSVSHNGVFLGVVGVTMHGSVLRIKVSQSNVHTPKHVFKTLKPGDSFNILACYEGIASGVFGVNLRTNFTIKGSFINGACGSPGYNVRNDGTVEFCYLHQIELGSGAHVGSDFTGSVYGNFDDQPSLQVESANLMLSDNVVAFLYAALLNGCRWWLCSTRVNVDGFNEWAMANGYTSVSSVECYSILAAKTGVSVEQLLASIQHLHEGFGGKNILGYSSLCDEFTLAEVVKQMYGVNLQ
hCoV-229E 3CLPro, sequence (P0C6X1 2966-3267 limits assumed): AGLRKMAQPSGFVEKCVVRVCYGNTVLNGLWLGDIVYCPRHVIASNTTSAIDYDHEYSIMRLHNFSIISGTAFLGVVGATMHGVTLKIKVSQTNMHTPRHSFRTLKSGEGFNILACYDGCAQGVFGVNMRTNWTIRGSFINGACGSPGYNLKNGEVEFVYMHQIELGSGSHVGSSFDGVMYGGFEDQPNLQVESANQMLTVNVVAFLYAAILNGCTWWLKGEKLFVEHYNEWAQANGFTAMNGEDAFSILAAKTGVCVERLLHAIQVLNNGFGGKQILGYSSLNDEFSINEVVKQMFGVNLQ
hCoV-OC43 3CLPro, sequence (P0C6X6 3247-3549 limits assumed): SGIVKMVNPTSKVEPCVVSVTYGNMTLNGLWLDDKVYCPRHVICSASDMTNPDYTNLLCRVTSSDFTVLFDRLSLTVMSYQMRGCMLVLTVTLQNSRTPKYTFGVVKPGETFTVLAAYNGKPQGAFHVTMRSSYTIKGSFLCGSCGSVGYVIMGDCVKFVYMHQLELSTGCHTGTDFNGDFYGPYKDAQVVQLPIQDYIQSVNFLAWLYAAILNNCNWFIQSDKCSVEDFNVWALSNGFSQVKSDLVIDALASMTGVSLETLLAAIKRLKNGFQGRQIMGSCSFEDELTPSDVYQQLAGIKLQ
hCoV-HKU1 3CLPro, sequence (P0C6X2 3335-3637 limits assumed): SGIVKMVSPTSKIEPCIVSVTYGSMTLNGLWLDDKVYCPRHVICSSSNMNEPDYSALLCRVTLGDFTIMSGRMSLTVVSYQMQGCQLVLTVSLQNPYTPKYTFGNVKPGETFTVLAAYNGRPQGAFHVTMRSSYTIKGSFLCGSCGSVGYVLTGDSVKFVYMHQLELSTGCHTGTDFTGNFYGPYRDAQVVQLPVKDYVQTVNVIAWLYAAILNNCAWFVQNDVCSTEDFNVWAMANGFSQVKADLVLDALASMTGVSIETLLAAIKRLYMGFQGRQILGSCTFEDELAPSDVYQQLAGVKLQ

`CNC(=O)C(=O)[C@H](CCC(C)(F)F)NC(=O)[C@@H]1[C@H]2CCC[C@H]2CN1C(=O)[C@@H](NC(=O)OC)C(C)(C)C` [MK-7845] showed an IC50 [1] of 0.0192 µM, an IC50 [2] of 0.318 µM and an IC50 [3] of 0.307 µM. It also gave an IC50 [4] of 0.017 µM, an IC50 [5] of 0.0255 µM and an IC50 [6] of 0.167 µM. For the same compound, the EC50 [7] was 3.15 µM, the EC50 [8] was 0.37 µM and the EC50 [9] was 0.27 µM. It also gave an EC50 [10, 26] of 0.14 µM, an IC50 [11, 27] of 0.36 µM and an IC50 [11] of 0.362 ± 0.065 µM. For the same compound, the EC50 [12, 28] was 0.46 µM, the EC50 [12, 29] was 0.39 µM and the EC90 [12, 30] was 0.541 ± 0.01 µM. The EC50 ([12]; read-out: EC50 Mean ± SD) was 0.463 ± 0.008 µM, the body weight change [13] was “gained weight” and the “lung pathology (H&E, semi-quantitative)” value [13] was “significantly reduced”. For the same compound, the “lung pathology compared with vehicle group (H&E, semi-quantitative)” value [13] was “similar”, the “reduction in lung viral load (TCID50)” value [13] was “no significant reduction in viral load” and the “reduction in viral burden (TCID50) versus the nirmatrelvir group” value [13] was 3.4 log and 5 log. The “reduction in viral load by PFU assay compared to vehicle control” value [13] was “did not show a significant reduction in viral load”, the “reduction of lung viral load (TCID50) compared to vehicle control” value [13] was ~ 5 logs and ~ 6 logs and the “reduction in viral burdens in the lungs” value ([13]; po) was over 6 log orders. For the same compound, the EC50 [14] was 0.015 µM, the “plasma concentrations versus PBA EC90” value ([15]; CD-1, mouse) was “above the PBA EC90” and the “total plasma concentrations versus replicon EC90 and PBA EC90” value ([15]; mouse) was “stayed above”. For the same compound, the “unbound mouse plasma fraction (fup)” value was 0.379, the “PFU assay of lung homogenate” value [16] was “no plaques were formed” and the “decrease in viral burden by PFU assay compared to vehicle-treated mice” value [16] was ~ 6 log. For the same compound, the “lung pathology (H&E, semi-quantitative)” value [16] was “notable reduction in lung pathology”, the “reduction in viral burden compared to vehicle-control group” value [16] was 3 log TCID50 and the “reduction in viral load by PFU assay in comparison to nirmatrelvir” value [16] was 2.9 log and 3.6 log. For the same compound, the “viral genomic RNA in lung tissue by RT-PCR” value [16] was “did not observe a significant reduction”, the “reduction in viral burdens in the lungs” value ([16]; po) was over 6 log orders and the “plasma levels at troughs versus PBA EC90” value [17] was “above the PBA EC90”. It also gave a Vd ([18]; iv, 5 mg/kg) of 1.2 L/kg, a clearance ([18]; iv, 5 mg/kg) of 1.05 L/h/kg and a half-life ([18]; iv, 5 mg/kg) of 47.4 min. The AUC ([18]; 100 mg/kg) was 49.1 µg·h/mL, the AUC ([18]; 250 mg/kg) was 146 µg·h/mL and the AUC ([18]; 500 mg/kg) was 238 µg·h/mL. For the same compound, the AUC ([18]; 1000 mg/kg) was 306 µg·h/mL, the EC50 [19] was over 36 µM and the CC50 [20] was over 100 µM.
`CC(C)(C)[C@H](NC(=O)C(F)(F)F)C(=O)N1C[C@H]2[C@@H]([C@H]1C(=O)N[C@H](C#N)C[C@@H]1CCNC1=O)C2(C)C` [Nirmatrelvir, nirmatrelvir] showed an EC50 [7] of 0.473 µM, an EC50 [8] of 0.163 µM and an EC50 [9] of 0.06 µM. For the same compound, the EC50 [10, 26] was 0.07 µM, the EC50 ([10]; read-out: EC50 Mean ± SD) was 0.05 ± 0.01 µM and the IC50 [11, 27] was 0.117 ± 0.023 µM. It also gave an EC50 [12, 28] of 0.088 ± 0.03 µM, an EC50 [12, 29] of 0.07 µM and an EC90 [12, 30] of 0.164 ± 0.01 µM. For the same compound, the “lung pathology compared with vehicle group (H&E, semi-quantitative)” value [13] was “similar”, the “lung viral loads (TCID50), dose validation” value [13] was “significant reduction in the lung viral loads” and the “viral lung burden (TCID50 and PFU assay)” value [13] was ~ 6 logs. The “lung viral loads (TCID50), dose validation” value [16] was “significant reduction in the lung viral loads”, the “reduction in hospitalization rates and deaths” value [21] was 80–90% and the EC50 [19] was over 36 µM. The CC50 [20] was over 100 µM, the “increase of plasma levels by ritonavir” value [22] was “up to 20 fold” and the EC50 [23] was 0.01 µM.
For `CCC(CC)COC(=O)[C@H](C)N[P@](=O)(OC[C@H]1O[C@@](C#N)(c2ccc3c(N)ncnn23)[C@H](O)[C@@H]1O)Oc1ccccc1` [Remdesivir, remdesivir], the EC50 [9] was 0.78 µM, the EC50 ([10]; Severe acute respiratory syndrome coronavirus 2, VeroE6/TMPRSS2, 72 h, read-out: EC50 Mean ± SD) was 0.149 ± 0.004 µM and the EC50 [10, 26] was 0.17 µM. The EC50 ([10]; read-out: EC50 Mean ± SD) was 0.11 µM and 0.163 µM and 0.094 µM and 0.155 µM and 0.09 µM and 0.141 µM and 0.15 µM, the IC50 [11, 27] was 0.167 ± 0.033 µM and the EC50 [12, 28] was 0.11 ± 0.018 µM. For the same compound, the EC50 [12, 29] was 0.15 µM, the EC90 [12, 30] was 0.24 ± 0.093 µM and the “shift in activity in the presence versus the absence of the P-GP inhibitor” value [24] was “significant shift in activity”. It also gave a CC50 [20] of 20 µM and an EC50 [23] of 0.27 µM.
For `COc1cc2c(cc1OC)CN(CCc1ccc(NC(=O)c3cccc4c(=O)c5cccc(OC)c5[nH]c34)cc1)CC2` [elacridar], the “effect of P-GP inhibitor on the infection” value [24] was “did not show an effect on the infection” and the “toxicity of P-GP inhibitor to cells” value [25] was “not toxic”.

From paper PMC11281459 (Viruses, 2024)
